From ChEMBL document CHEMBL3870327, “Thioxylated cyclosporin A for studying protein-drug interactions” (Bioorg Med Chem Lett, 2016)
pKd: −log10 of the molar value. Activity calls are given as the source filed them. The calls are words filed in the database; no cut-off is given here. *1 amine or outer side, *2 acyl side, *3 side chain or, on linkers, in order; H or OH if unused. Where a SMILES comes first, the peptide text is derived from it. [ ]: non-standard residue; d: D form. X1 = CC(C)C[C@@H](C(=S)N[C@H](C(=O)[*:2])C(C)C)N(C)[*:1]; AlaΨ(CSNH)dAla = C[C@H](N[*:1])C(=S)N[C@H](C)C(=O)[*:2]; MeBmt = C/C=C/C[C@@H](C)[C@@H](O)[C@H](NC)C(=O)O; NMeL = CN[C@@H](CC(C)C)C(=O)O; NMeV = CN[C@H](C(=O)O)C(C)C; Abu = CC[C@H](N)C(=O)O; Sar = CNCC(=O)O

What was measured:
[1] = molecular target: T1, Peptidyl-prolyl cis-trans isomerase A (Homo sapiens, UniProt P62937); test: Binding affinity to recombinant His-tagged Cyp18 (unknown origin) expressed in Escherichia coli BL21(DE3) assessed as inhibition of recombinant human His6-tagged calcineurin alpha phosphatase actvity using RII phosphopeptide as substrate by measuring amount of free phosphate at 10 uM preincubated for 20 mins followed by substrate addition measured after 30 mins in presence of human calmodulin by malachite green dye-based spectrophotometry relative to control
Target sequence in this assay (P62937 whole entry, looked up): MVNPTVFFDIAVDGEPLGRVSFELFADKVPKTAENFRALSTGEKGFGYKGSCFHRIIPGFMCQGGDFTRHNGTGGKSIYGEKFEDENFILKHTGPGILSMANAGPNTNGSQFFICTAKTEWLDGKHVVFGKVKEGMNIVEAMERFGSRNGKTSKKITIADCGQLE

[2] = molecular target: T1, Peptidyl-prolyl cis-trans isomerase A; test: Binding affinity to recombinant His-tagged Cyp18 (unknown origin) expressed in Escherichia coli BL21(DE3) by fluorescence analysis
Target sequence in this assay (P62937 whole entry, looked up): as above

[3] = molecular target: T1, Peptidyl-prolyl cis-trans isomerase A; test: Binding affinity to recombinant His-tagged Cyp18 (unknown origin) expressed in Escherichia coli BL21(DE3) assessed as blue shift by UV absorbance method
Target sequence in this assay (P62937 whole entry, looked up): as above

[4] = molecular target: T1, Peptidyl-prolyl cis-trans isomerase A; test: Inhibition of recombinant His-tagged Cyp18 (unknown origin) expressed in Escherichia coli BL21(DE3) up to 1000 nM
Target sequence in this assay (P62937 whole entry, looked up): as above

[5] = molecular target: T1, Peptidyl-prolyl cis-trans isomerase A; test: Binding affinity to Cyp18 (unknown origin) assessed as association rate constant of fast phase by stopped flow method
Target sequence in this assay (P62937 whole entry, looked up): as above

[6] = molecular target: T1, Peptidyl-prolyl cis-trans isomerase A; test: Binding affinity to Cyp18 (unknown origin) by fluorescence assay
Target sequence in this assay (P62937 whole entry): as the sequence (P62937 whole entry, looked up) above

[7] = molecular target: T1, Peptidyl-prolyl cis-trans isomerase A; test: Binding affinity to recombinant His-tagged Cyp18 (unknown origin) expressed in Escherichia coli BL21(DE3) assessed as dissociation rate constant in presence of 20-fold excess of cyclosporin A by fluorescence assay
Target sequence in this assay (P62937 whole entry, looked up): as above

| Activity [1] | Activity [2] | Activity [3] | inhibition [4] | K [5] | pKd [6] | K [7] | Structure (SMILES) |
| --- | --- | --- | --- | --- | --- | --- | --- |
| Active | Active | Active | Active |  |  |  | C/C=C/C[C@@H](C)[C@@H](O)[C@H]1C(=O)N[C@@H](CC)C(=O)N(C)CC(=O)N(C)[C@@H](CC(C)C)C(=S)N[C@@H](C(C)C)C(=O)N(C)[C@@H](CC(C)C)C(=O)N[C@@H](C)C(=O)N[C@H](C)C(=O)N(C)[C@@H](CC(C)C)C(=O)N(C)[C@@H](CC(C)C)C(=O)N(C)[C@@H](C(C)C)C(=O)N1C |
| Active | Active | Active | Active | 8.34 ×10⁶ /M/s | 8.09 | 6.32 ×10⁻² /s | C/C=C/C[C@@H](C)[C@@H](O)[C@H]1C(=O)N[C@@H](CC)C(=O)N(C)CC(=O)N(C)[C@@H](CC(C)C)C(=O)N[C@@H](C(C)C)C(=O)N(C)[C@@H](CC(C)C)C(=O)N[C@@H](C)C(=S)N[C@H](C)C(=O)N(C)[C@@H](CC(C)C)C(=O)N(C)[C@@H](CC(C)C)C(=O)N(C)[C@@H](C(C)C)C(=O)N1C (HELM PEPTIDE1{[Abu].[Sar].[meL].V.[meL].[C[C@H](N[*:1])C(=S)N[C@H](C)C(=O)[*:2]].[meL].[meL].[meV].[C/C=C/C[C@@H](C)[C@@H](O)[C@@H](C(=O)[*:2])N(C)[*:1]]}$PEPTIDE1,PEPTIDE1,1:R1-10:R2$$$V2.0) |
| Active | Active | Active | Active |  |  |  | C/C=C/C[C@@H](C)[C@@H](O)[C@H]1C(=O)N[C@@H](CC)C(=O)N(C)CC(=O)N(C)[C@@H](CC(C)C)C(=S)N[C@@H](C(C)C)C(=O)N(C)[C@@H](CC(C)C)C(=O)N[C@@H](C)C(=S)N[C@H](C)C(=O)N(C)[C@@H](CC(C)C)C(=O)N(C)[C@@H](CC(C)C)C(=O)N(C)[C@@H](C(C)C)C(=O)N1C (cyclo([Abu][Sar][X1][NMeL][AlaΨ(CSNH)dAla][NMeL][NMeL][NMeV][MeBmt])) |
